# Source: patent US10786690B2, “Amide derivatives of polycaffeoylquinic acids, process for producing same and uses thereof” (TEMISIS, priority 2016, dated 2020)
# “And” between values parts separate entries of the source, which are not always exact repeats. Identical values can stand only once.
# Legend:
# [1] = system: Normal Human Dermal Fibroblasts (NHDFs); assay: qRT-PCR gene expression in Normal Human Dermal Fibroblasts; format: cell-based; details: 4 μM, 24 h
# Description: The study consisted in measuring the effects of compound PAT1657 by qRT-PCR on the expression of 94 genes involved in dermal biology, connective tissue remodelling and ageing.
# The protocol consisted in applying compound PAT1657 for 24 h in the culture medium of Normal Human Dermal Fibroblasts (NHDFs) in monolayer and analysing the various RNA populations to identify the genes differentially expressed by real-time qRT-PCR.
# The study was carried out on Normal Human Dermal Fibroblasts (NHDFs) (ATCC, CRL-2522, origin: foreskin) at about 40% of their proliferative potential and grown in monolayer in DMEM medium (Invitrogen, 31885-049) containing antibiotics (penicillin/streptomycin, Invitrogen, 15140-122) but not containing serum. The cells were maintained in a humid atmosphere at 37° C. containing 5% CO2.
# Compound PAT1657 was applied in the NHDF culture medium for 24 h (n=3). Controls treated with the solvent DMSO (1% for the NHDFs) in which the active agents were prepared were also analysed. At the end of the treatments, total RNA populations were extracted, their integrity was analysed by capillary electrophoresis, and gene expression differences were analysed by qRT-PCR using 96-well TaqMan microfluidic cards (custom produced by Applied Biosystems), targeting key functions of the dermis and epidermis. The technical details of the implementation of the present paragraph are explained in the “Materials and methods” section of Example 1 of patent application FR1650745 and more specifically the sub-section titled “Analysis of gene expression changes” (page 26 line 22 to page 28 line 9).
# The gene expression changes induced by the active agents are expressed as relative quantity (RQ) based on the respective DMSO solvent controls.
# PGE2 = PGE2 production by NHEKs in the inflammatory state (PMA), ELISA; format: cell-based, human; details: PMA 10 ng/ml 24 h, compounds 50 μM, indomethacin 10 μg/ml, relative to PMA induced control (100%)
# Description: (§1) The study was carried out on Normal Human Epidermal Keratinocytes (NHEKs) (Lonza, CC-2507, origin: foreskin) in monolayer culture in Epilife medium (Invitrogen, M-EPI-500-A) containing the components of the Human Keratinocyte Growth Supplement (HKGS) mixture (Invitrogen, S-001-K) added separately, except hydrocortisone having anti-inflammatory properties.
# For the quantification of IL-8 and PGE2, the inflammatory state of the NHEKs in culture was induced by treatment with PMA (phorbol myristate acetate/10 ng/ml/H2O) for 24 h. Induction of IL-6 was achieved by treatment with PMA (10 ng/ml/H2O) combined with calcium ionophore A23187 (2 μM/DMSO) in medium containing calcium at a concentration of 0.8 mM. TNF-α secretion was induced by a combination of PMA (10 ng/ml/H2O) and calcium ionophore A23187 (2 μM/DMSO) applied for 24 h (TNF-α) in medium containing 0.06 mM calcium. The reference molecules used are dexamethasone (10 μM/H2O) and indomethacin (10 μg/ml/ethanol).
# (§2) The effect of the compounds was studied by applying them to the keratinocyte culture medium 2 h prior to induction of the inflammatory state as well as during induction (2 h for LTB4, 24 h for IL-8, PGE2, IL-6 and TNF-α).
# (§3) Each condition was carried out in triplicate cultures and the supernatants were recovered at the end of the various treatments.
# (§4) Quantification of the various inflammatory mediators was carried out with specific kits, based on a standard curve, according to the instructions provided by the kits' suppliers, R&D Systems and Cayman Chemical.
# (§5) Before induction of the inflammatory state, the NHEKs were treated with the compounds and reference molecules for 2 h. The inflammatory state was then induced according to the conditions described in the methodology section, the culture supernatants were collected, and the various inflammatory mediators were quantified by the ELISA technique.
# The effect of the compounds on PGE2 production is presented in FIG. 5 and is expressed as a percentage of the PMA treatment set at 100%.
# [2] = system: Normal Human Epidermal Keratinocytes (NHEKs); assay: Microscopic observation of NHEK cell survival 48 h after inflammatory treatment; format: cell-based
# Description: The cells, treated and not treated by the compounds to be tested, were observed under an optical microscope 48 h after the following inflammatory treatment: 10 ng/mL PMA/H2O+2 μM calcium ionophore A23187/DMSO.
# NHEKs were brought into contact or not with the compounds to be tested. After 2 h, the cells underwent or not an inflammation treatment (10 ng/mL PMA/H2O+2 μM calcium ionophore A23187/DMSO).
# The cells were observed under an optical microscope 48 h after the inflammatory treatment.
# IL-8 = IL-8 production by NHEKs in the inflammatory state (PMA), ELISA; format: cell-based, human; details: PMA 10 ng/ml 24 h, compounds 50 μM, dexamethasone 10 μM, relative to PMA induced control (100%)
# Description: as §1
# For the quantification of IL-8 and PGE2, the inflammatory state of the NHEKs in culture was induced by treatment with PMA (phorbol myristate acetate/10 ng/ml/H2O) for 24 h. Induction of IL-6 was achieved by treatment with PMA (10 ng/ml/H2O) combined with calcium ionophore A23187 (2 μM/DMSO) in medium containing calcium at a concentration of 0.8 mM. […]
# as §4
# Before induction of the inflammatory state, the NHEKs were treated with the compounds and reference molecules for 2 h. The inflammatory state was then induced according to the conditions described in the methodology section, the culture supernatants were collected, and the various inflammatory mediators were quantified by the ELISA technique. […]
# IL-6 = IL-6 production by NHEKs in the inflammatory state (PMA + calcium ionophore, 0.8 mM Ca2+), ELISA; format: cell-based, human; details: PMA + calcium ionophore A23187, 0.8 mM Ca2+, compounds 50 μM, dexamethasone 10 μM, relative to induced control
# Description: as §1
# For the quantification of IL-8 and PGE2, the inflammatory state of the NHEKs in culture was induced by treatment with PMA (phorbol myristate acetate/10 ng/ml/H2O) for 24 h. […]
# as §4, §5
# The effect of the compounds on IL-6 production by NHEKs in the inflammatory state is shown in FIG. 6 and is expressed as a percentage of the treatment with PMA combined with calcium ionophore A23187 (under high-calcium conditions: 0.8 mM Ca2+).
# LTB4 = LTB4 production by NHEKs in the inflammatory state (arachidonic acid + calcium ionophore), ELISA; format: cell-based, human; details: arachidonic acid 1 μM + calcium ionophore A23187 2 h, compounds 50 μM, NDGA 2 μM, relative to induced control
# Description: as §1
# The induction of LTB4 production having a very fast kinetics, the scheme was adapted. In this case, the inflammatory state was induced for 2 h by applying arachidonic acid (a.a./1 μM/ethanol) combined with calcium ionophore A23187 (2 μM/DMSO). Nordihydroguaiaretic acid (NDGA) was used as reference molecule (2 μM/ethanol).
# as §2, §3, §4, §5
# The effects of the compounds on LTB4 production are shown in FIG. 8 and are expressed as a percentage of the treatment with arachidonic acid (a.a.) combined with calcium ionophore A23187 set at 100%.
smiles,measurement,setting,value
"CCCCCCCCNC(=O)[C@]1(O)C[C@@H](OC(=O)/C=C/c2ccc(O)c(O)c2)[C@@H](O)[C@H](OC(=O)/C=C/c2ccc(O)c(O)c2)C1 [PAT1657, (2E,2′E)-((1R,2S,3R,5S)-2,5-dihydroxy-5-(octylcarbamoyl)cyclohexane-1,3-diyl) bis(3-(3,4-dihydroxyphenyl)acrylate)]",expression of gene GSS,[1]; in words only,overexpressed
same,"RQ (relative expression), gene CCL5",[1]; relative to 1% DMSO vehicle,28.13
same,"RQ (relative expression), gene DDIT3",[1]; relative to 1% DMSO vehicle,2.81
same,"RQ (relative expression), gene FTL",[1]; relative to 1% DMSO vehicle,2.1 and 2.08
same,"RQ (relative expression), gene GADD45A",[1]; relative to 1% DMSO vehicle,3.68
same,"RQ (relative expression), gene KLF4",[1]; relative to 1% DMSO vehicle,1.9 and 1.93
same,"RQ (relative expression), gene MMP1",[1]; relative to 1% DMSO vehicle,6.9 and 6.91
same,"RQ (relative expression), gene MMP3",[1]; relative to 1% DMSO vehicle,3.1 and 3.12
same,"RQ (relative expression), gene MTNR1A",[1]; relative to 1% DMSO vehicle,1.46
same,"RQ (relative expression), gene NANOG",[1]; relative to 1% DMSO vehicle,4.7 and 4.67
same,"RQ (relative expression), gene NOX1",[1]; relative to 1% DMSO vehicle,1.46
same,"RQ (relative expression), gene POU5F1",[1]; relative to 1% DMSO vehicle,5.1
same,"RQ (relative expression), gene RBP2",[1]; relative to 1% DMSO vehicle,1.46
same,"RQ (relative expression), gene RORA",[1]; relative to 1% DMSO vehicle,4.4 and 4.41
same,"RQ (relative expression), gene SIRT1",[1]; relative to 1% DMSO vehicle,2.02
same,"RQ (relative expression), gene SOD2",[1]; relative to 1% DMSO vehicle,4.7 and 4.66
same,"RQ (relative expression), gene TXNRD1",[1]; relative to 1% DMSO vehicle,2.8 and 2.82
same,"RQ (relative expression), gene VEGFA",[1]; relative to 1% DMSO vehicle,8.3 and 8.28
same,PGE2 production,PGE2,very highly significantly decrease
same,Result at 48 h: cell survival,"[2]; NHEK cultures 48 h after inflammatory treatment (10 ng/mL PMA + 2 μM calcium ionophore A23187), microscopic observation",Confluent culture: 100%
same,effect on cell survival / cellular protection against inflammation,"[2]; NHEK cultures 48 h after inflammatory treatment, summary in words",strong cellular protection against inflammation
same,IL-8 production,IL-8,inhibit/reduce IL-8 production to the baseline level
same,IL-6 production,IL-6,largest decreases and are more effective than dexamethasone itself
same,LTB4 production,LTB4,"block/decrease, in a very highly significant manner"
